Here are results for 13 molecules from PubChem BioAssay (NCI).

Molecules are shown by their SMILES.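 Values below derive from 48-hour exposures of cells grown in 96-well plates, with endpoints linearly interpolated between the two concentrations bracketing the appropriate inhibition level. GI50: concentration for 50% inhibition of growth. TGI is the concentration that stops growth completely.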

Among the test systems are A498 renal; COLO 205 colon; IGROV1 ovarian; K-562 leukemia; MDA-MB-435; SN12C renal; SR leukemia; HCT-116 colon; LOX IMVI melanoma; OVCAR-4 ovarian.
Holding throughout (experiment): NCI-60 cell line screen, 48 h

In the case of `NC(N)=N/N=C/c1c(-c2cccs2)nc2n1CCS2`, the GI50 with A498 renal was 5.65 µM; in the assay on COLO 205 colon it was 18.1 µM; in the assay on IGROV1 ovarian, 34.9 µM; in the assay with K-562 leukemia, 27.9 µM; in the assay on MDA-MB-435, 16.7 µM; in the assay on SN12C renal, 12.5 µM. Moreover, in the assay on SR leukemia, the GI50 is 17.6 µM. Moreover, the TGI in the assay on A498 renal is more than 100 µM; in the assay on COLO 205 colon, 40.4 µM; with IGROV1 ovarian, more than 100 µM; with K-562 leukemia, 71.8 µM; in the assay with MDA-MB-435 it was 30.7 µM; in the assay with SN12C renal, 32.4 µM. Further, the TGI in the assay with SR leukemia was determined as 34 µM.
Consider `OC1CCSc2ccccc21` (stereo not drawn), for which the TGI in the assay with COLO 205 colon, in the assay on HCT-116 colon, in the assay on IGROV1 ovarian, with K-562 leukemia, in the assay with LOX IMVI melanoma and in the assay on OVCAR-4 ovarian was more than 100 µM throughout. For the same molecule, the TGI in the assay on SN12C renal and in the assay with SR leukemia was more than 100 µM each time.
In the case of `CCOC(=O)c1cccc(N=Nc2ncc(/C=C/C(=O)OC)[nH]2)c1`, the TGI is 67.8 µM in the assay on A498 renal; 49 µM in the assay with COLO 205 colon; 69.7 µM in the assay with HCT-116 colon; 83.8 µM with IGROV1 ovarian; more than 100 µM in the assay with K-562 leukemia; 51 µM in the assay on LOX IMVI melanoma. Further, the TGI in the assay on MDA-MB-435 was more than 100 µM; in the assay on OVCAR-4 ovarian, more than 100 µM; in the assay on SN12C renal it was 48.5 µM; in the assay on SR leukemia, more than 100 µM.
Turning to `C#C[C@]1(O)[C@@H](CO)O[C@@H](n2ccc(=O)[nH]c2=O)[C@@H]1O`, the TGI with A498 renal was more than 100 µM; in the assay with COLO 205 colon it was 0.173 µM; in the assay on IGROV1 ovarian it was 2.59 µM; in the assay on K-562 leukemia, more than 100 µM; in the assay on LOX IMVI melanoma, 1.57 µM; in the assay with MDA-MB-435 it was 3 µM. The values for the TGI with OVCAR-4 ovarian and with SR leukemia were 45.3 µM and more than 100 µM, respectively.
Regarding `CN(CCN1C(=O)c2cccc3cccc(c23)C1=O)CCN1C(=O)c2cccc3cccc(c23)C1=O`, the TGI in the assay on COLO 205 colon was 16.5 µM; in the assay with HCT-116 colon it was more than 100 µM; in the assay on IGROV1 ovarian, more than 100 µM; in the assay with K-562 leukemia, more than 100 µM; with LOX IMVI melanoma, more than 100 µM; with MDA-MB-435, more than 100 µM. Further, the values for the TGI with OVCAR-4 ovarian, with SN12C renal and with SR leukemia were more than 100 µM, more than 100 µM and 13 µM, respectively.
Turning to `c1ccc(C[N+]23C(CC[C@H]2c2ccccc2)CC[C@H]3c2ccccc2)cc1` (stereo partly drawn), the TGI with A498 renal was more than 100 µM; in the assay with COLO 205 colon, 31.2 µM; with HCT-116 colon, more than 100 µM; in the assay on IGROV1 ovarian it was more than 100 µM; with K-562 leukemia it was more than 100 µM; with LOX IMVI melanoma, more than 100 µM. In addition, the TGI is 54.8 µM with MDA-MB-435, more than 100 µM in the assay on OVCAR-4 ovarian, more than 100 µM in the assay with SN12C renal and more than 100 µM in the assay with SR leukemia.
For the molecule `CC(CCCCNC(=O)OC(C)(C)C)NC(=O)NC(C)CCCCNC(=O)OC(C)(C)C` (stereo not drawn), the TGI in the assay on A498 renal, with COLO 205 colon, with HCT-116 colon, in the assay on IGROV1 ovarian, in the assay on K-562 leukemia and in the assay with LOX IMVI melanoma was more than 100 µM throughout. Also, the TGI with MDA-MB-435, with OVCAR-4 ovarian, with SN12C renal and in the assay on SR leukemia was more than 100 µM throughout.
On to `Fc1c(F)c(F)c(CSc2nc3ccccc3[nH]2)c(F)c1F`, for which the TGI in the assay on A498 renal, with COLO 205 colon, with HCT-116 colon, with IGROV1 ovarian, in the assay on K-562 leukemia and with LOX IMVI melanoma was more than 100 µM in each case. Besides, the TGI with MDA-MB-435, with OVCAR-4 ovarian, with SN12C renal and with SR leukemia was more than 100 µM throughout.
For `Oc1ccc(Cl)cc1C1=Nn2c(COc3ccc4c(c3)CCCC4)nnc2SC1`, the TGI was 11.8 µM with A498 renal; 31.3 µM in the assay with COLO 205 colon; 19.4 µM in the assay on HCT-116 colon; 26.3 µM with IGROV1 ovarian; 49.4 µM in the assay on K-562 leukemia; 29.3 µM with LOX IMVI melanoma. Also, the TGI was determined as 36.1 µM in the assay on MDA-MB-435, 13.8 µM with OVCAR-4 ovarian and 19.9 µM in the assay with SN12C renal.
For the molecule `COc1cc2cc[n+](C)c(Cc3ccc(Oc4cc(Cc5c6cc(OC)c(OC)cc6cc[n+]5C)ccc4OC)cc3)c2cc1OC`, the TGI in the assay with A498 renal, in the assay on COLO 205 colon, in the assay with HCT-116 colon, in the assay on IGROV1 ovarian, in the assay with K-562 leukemia and in the assay with LOX IMVI melanoma was more than 100 µM each time. In addition, the TGI in the assay on MDA-MB-435, in the assay with OVCAR-4 ovarian, in the assay with SN12C renal and in the assay with SR leukemia was more than 100 µM each time.
In the case of `O=C(NN1CCCCC1)c1cc2cc(CCl)ccc2oc1=O`, the TGI in the assay on A498 renal was more than 100 µM; in the assay with COLO 205 colon, 36 µM; with HCT-116 colon, 38 µM; in the assay on IGROV1 ovarian it was 42.7 µM; in the assay on K-562 leukemia, 48.1 µM; in the assay on LOX IMVI melanoma, 35.9 µM. The TGI with MDA-MB-435 came out at 42.1 µM; in the assay with OVCAR-4 ovarian, 36.4 µM; with SN12C renal, 38.7 µM; with SR leukemia, 67.8 µM.
As to `CC(C)(C)COS(=O)OCC(C)(C)C`, the TGI in the assay on A498 renal, in the assay on COLO 205 colon, in the assay on HCT-116 colon, with IGROV1 ovarian, in the assay with K-562 leukemia and in the assay on LOX IMVI melanoma was more than 100 µM throughout. For the same molecule, the TGI with MDA-MB-435, with OVCAR-4 ovarian, in the assay on SN12C renal and with SR leukemia was more than 100 µM in each case.
For the molecule `Cc1ccc(S(=O)(=O)Nc2cc(=O)[nH]c3c2CCC3)cc1`, the TGI in the assay with A498 renal, in the assay on COLO 205 colon, in the assay with HCT-116 colon, in the assay with IGROV1 ovarian, in the assay on K-562 leukemia and in the assay on LOX IMVI melanoma was more than 100 µM in each case. The TGI in the assay on MDA-MB-435, in the assay with OVCAR-4 ovarian, in the assay on SN12C renal and in the assay with SR leukemia was more than 100 µM throughout.
